What was measured:
[1] = DVS (dynamic vapor sorption) hygroscopicity testing; type: physicochemical; details: for hygroscopic weight gain under normal storage conditions / hygroscopic weight gain under accelerated experimental conditions / hygroscopic weight gain under extreme conditions: DVS; for hygroscopic weight gain under normal storage conditions: 25° C. and 60% RH; for hygroscopic weight gain under accelerated experimental conditions: 70% RH; for hygroscopic weight gain under extreme conditions: 90% RH; for crystal form re-identification after DVS testing: XRPD after DVS
Method: DVS refers to dynamic vapor sorption: Surface Measurement Systems instrinsic was adopted; the humidity started at 50%, the humidity range investigated was 0%-95%, and the humidity was increased in increments of 10%; the criterion was that each gradient mass change dM/dT is less than 0.002%, TMAX 360 min, two cycles.

[2] = Long-term/accelerated stability (sealed, 25° C./60% RH and 40° C./75% RH)
[3] = Influencing factor stability (open flasks, light, high temperature, high humidity, 30 days)
[4] = 25° C., 60% RH, sealed, 1 month
[5] = 25° C., 60% RH, sealed, 2 months
[6] = 25° C., 60% RH, sealed, 3 months
[7] = 25° C., 60% RH, sealed, 6 months
[8] = 25° C./60% RH and 40° C./75% RH, 6 months
[9] = 40° C., 75% RH, sealed, 1 month
[10] = 40° C., 75% RH, sealed, 2 months
[11] = 40° C., 75% RH, sealed, 3 months
[12] = 40° C., 75% RH, sealed, 6 months
[13] = Light exposure (4500 Lux), 5 days, open flask
[14] = Light exposure (4500 Lux), 10 days, open flask
[15] = Light exposure (4500 Lux), 30 days, open flask
[16] = light exposure (4500 Lux), 40° C. and 60° C., high humidity RH 75% and 92.5%, 30 days
[17] = Light exposure (4500 Lux), 12 days, open flask

## CCO[C@H]1C[C@H]2CC[C@@](c3ccc(C(=O)O)cc3)(C1)N2Cc1c(OC)cc(C)c2[nH]ccc12.O=P(O)(O)O [crystal form III of the phosphate, 4-((1S,3S,5R)-3-ethoxy-8-((5-methoxy-7-methyl-1H-indol-4-yl)methyl)-8-azabicyclo[3.2.1]octan-1-yl)benzoic acid-phosphate]
[1]
  hygroscopic weight gain under normal storage conditions: about 4.7700%
  hygroscopic weight gain under accelerated experimental conditions: about 5.440%
  hygroscopic weight gain under extreme conditions: about 7.20%
  crystal form re-identification after DVS testing: did not change

## CCO[C@H]1C[C@H]2CC[C@@](c3ccc(C(=O)O)cc3)(C1)N2Cc1c(OC)cc(C)c2[nH]ccc12.Cc1ccc(S(=O)(=O)O)cc1 [crystal form I of the p-toluenesulfonate, 4-((1S,3S,5R)-3-ethoxy-8-((5-methoxy-7-methyl-1H-indol-4-yl)methyl)-8-azabicyclo[3.2.1]octan-1-yl)benzoic acid-p-toluenesulfonate]
[1]
  hygroscopic weight gain under normal storage conditions: about 1.22%
  hygroscopic weight gain under accelerated experimental conditions: about 1.37%
  hygroscopic weight gain under extreme conditions: about 1.87%
  crystal form re-identification after DVS testing: did not change
[2]; [4]
  Purity %: 100.0%
  Salt form: No change
[2]; [5]
  Purity %: 100.0%
  Salt form: No change
[2]; [6]
  Purity %: 100.0%
  Salt form: No change
[2]; [7]
  Purity %: 100.0%
  Salt form: No change
[2]; [8]
  chemical stability: relatively good
  physical stability: relatively good
[2]; [9]
  Purity %: 100.0%
  Salt form: No change
[2]; [10]
  Purity %: 99.8%
  Salt form: No change
[2]; [11]
  Purity %: 99.8%
  Salt form: No change
[2]; [12]
  Purity %: 99.7%
  Salt form: No change
[2]; Initial
  Purity %: 100.0%
[3]; 40° C., 5 days, open flask
  Color and state: White solid
  Purity %: 99.8%
  Salt form: No change
[3]; 40° C., 10 days, open flask
  Color and state: White solid
  Purity %: 99.7%
  Salt form: No change
[3]; 40° C., 30 days, open flask
  Color and state: White solid
  Purity %: 99.5%
  Salt form: No change
[3]; 60° C., 5 days, open flask
  Color and state: White solid
  Purity %: 99.8%
  Salt form: No change
[3]; 60° C., 10 days, open flask
  Color and state: White solid
  Purity %: 99.8%
  Salt form: No change
[3]; 60° C., 30 days, open flask
  Color and state: White solid
  Purity %: 99.7%
  Salt form: No change
[3]; 75% RH, 5 days, open flask
  Color and state: White solid
  Purity %: 99.9%
  Salt form: No change
[3]; 75% RH, 10 days, open flask
  Color and state: White solid
  Purity %: 99.9%
  Salt form: No change
[3]; 75% RH, 30 days, open flask
  Color and state: White solid
  Purity %: 99.9%
  Salt form: No change
[3]; 92.5% RH, 5 days, open flask
  Color and state: White solid
  Purity %: 100.0%
  Salt form: No change
[3]; 92.5% RH, 10 days, open flask
  Color and state: White solid
  Purity %: 100.0%
  Salt form: No change
[3]; 92.5% RH, 30 days, open flask
  Color and state: White solid
  Purity %: 99.9%
  Salt form: No change
[3]; Initial, 0 days
  Color and state: White solid
  Purity %: 100.0%
[3]; [13]
  Color and state: White solid
  Purity %: 99.9%
  Salt form: No change
[3]; [14]
  Color and state: White solid
  Purity %: 99.9%
  Salt form: No change
[3]; [15]
  Color and state: White solid
  Purity %: 99.7%
  Salt form: No change
[3]; [16]
  chemical stability: good
  physical stability: good

## CCO[C@H]1C[C@H]2CC[C@@](c3ccc(C(=O)O)cc3)(C1)N2Cc1c(OC)cc(C)c2[nH]ccc12.O=P(O)(O)O [crystal form II of the phosphate, 4-((1S,3S,5R)-3-ethoxy-8-((5-methoxy-7-methyl-1H-indol-4-yl)methyl)-8-azabicyclo[3.2.1]octan-1-yl)benzoic acid-phosphate]
[2]; [4]
  Purity %: 99.6%
[2]; [5]
  Purity %: 99.4%
[2]; 25° C./60% RH and 40° C./75% RH, 2 months
  physical stability: relatively good
[2]; [9]
  Purity %: 98.7%
[2]; [10]
  Purity %: 97.7%
[2]; Initial
  Purity %: 99.9%
[2]; long-term condition, 2 months
  long-term chemical stability: good
[3]; 40° C., 5 days, open flask
  Color and state: White solid
  Salt form: No change
[3]; 40° C., 12 days, open flask
  Color and state: White solid
  Salt form: No change
[3]; 40° C., 30 days, open flask
  Color and state: White solid
  Salt form: No change
[3]; 60° C., 5 days, open flask
  Color and state: White solid
  Salt form: No change
[3]; 60° C., 12 days, open flask
  Color and state: White solid
  Salt form: No change
[3]; 60° C., 30 days, open flask
  Color and state: White solid
  Salt form: No change
[3]; 75% RH, 5 days, open flask
  Color and state: White solid
  Salt form: No change
[3]; 75% RH, 12 days, open flask
  Color and state: White solid
  Salt form: No change
[3]; 75% RH, 30 days, open flask
  Color and state: White solid
  Salt form: No change
[3]; 92.5% RH, 5 days, open flask
  Color and state: White solid
  Salt form: No change
[3]; 92.5% RH, 12 days, open flask
  Color and state: White solid
  Salt form: Changed
[3]; 92.5% RH, 30 days, open flask
  Color and state: White solid
  Salt form: Changed
[3]; Initial, 0 days
  Color and state: White solid
  Salt form: Crystal form II
[3]; [13]
  Color and state: White solid
  Salt form: No change
[3]; [17]
  Color and state: White solid
  Salt form: No change
[3]; [15]
  Color and state: White solid
  Salt form: No change
[3]; high humidity conditions only, 30 days
  chemical stability under high humidity conditions: good
[3]; high temperature, light exposure, high humidity 75% RH only
  physical stability under high temperature, light exposure, and high humidity (75% RH) conditions: good

## CCO[C@H]1C[C@H]2CC[C@@](c3ccc(C(=O)O)cc3)(C1)N2Cc1c(OC)cc(C)c2[nH]ccc12.Cl [crystal form VI of the hydrochloride, 4-((1S,3S,5R)-3-ethoxy-8-((5-methoxy-7-methyl-1H-indol-4-yl)methyl)-8-azabicyclo[3.2.1]octan-1-yl)benzoic acid-hydrochloride]
[1]
  hygroscopic weight gain under normal storage conditions: about 3.69%
  hygroscopic weight gain under accelerated experimental conditions: about 4.12%
  hygroscopic weight gain under extreme conditions: about 5.73%
  crystal form re-identification after DVS testing: did not change

## CCO[C@H]1C[C@H]2CC[C@@](c3ccc(C(=O)O)cc3)(C1)N2Cc1c(OC)cc(C)c2[nH]ccc12.Cl [crystal form V of the hydrochloride, 4-((1S,3S,5R)-3-ethoxy-8-((5-methoxy-7-methyl-1H-indol-4-yl)methyl)-8-azabicyclo[3.2.1]octan-1-yl)benzoic acid-hydrochloride]
[1]
  hygroscopic weight gain under normal storage conditions: about 6.36%
  hygroscopic weight gain under accelerated experimental conditions: about 7.28%
  hygroscopic weight gain under extreme conditions: about 8.32%
  crystal form re-identification after DVS testing: did not change
